Data taken from patent US20250162973A1, “METHODS OF SYNTHESIS AND USES OF AGRIMOL COMPOUNDS” (Versitech Limited, priority 2022, published 2025).
Where two headings read alike, the source gives them in different places.

How the values were obtained:
NCI-H460 spheres = assay: Sphere formation assay (tumorsphere self-renewal); assay type: cell-based; details: Homo sapiens, read-out: tumorsphere forming efficiency, inhibition; for inhibition at 1 µM: 1.0 μM AGB
Protocol: NCI-H460 cells were seeded at 3,000 cells/ml per well in specific sphere formation medium (DMEM/F12 supplemented with 20 ng/ml EGF, 20 ng/ml bFGF and 1×B-27) with or without AGB (DMSO as vehicle, 0.5 and 1.0 μM of AGB for the assay) in a 6-well Ultra Low Cluster Plate (Costar®). The concentration of DMSO was normalized to 0.5% in all wells and was 0.5%. The cells were incubated at 37° C. for five days and the spheres were photographed under an inverted microscope at 40× magnification. Primary tummorsphere were collected and enzymatically dissociated using trypsin to generate the secondary tummorsphere. The dissociated cells were re-plated at a density of 2,000 cells/mL for subsequent passages. The images were captured and four fields were randomly chosen and the relative areas occupied by the spheres were measured using ImageJ (National Institutes of Health, Bethesda, MD). Representative images were obtained from three independent experiments.

[1] = tested on: cancer stem cells (NCI-H460 tumorspheres); assay: MTT assay on tumorspheres (cancer stem cells); assay type: cell-based; details: Homo sapiens, 72-h treatment
Protocol: For IC50 determination of sphere, similar procedures were performed as mentioned above. Briefly, cells were plated in 96-well clear flat bottom ultra-low attachment cell culture plates (Corning®) with a density of 5*10^3 cells into each well with specific sphere formation medium (DMEM/F12 medium supplemented with 20 ng/mL EGF, 20 ng/mL bFGF, 2% B27). The cells were then treated with AGB at different concentrations, ranging from 0.3 to 100 μM. After 3 days of treatment, the formed tumorspheres in each well were monitored under microscope. The MTT was then applied to determine the cell viability and the cell viability of AGB-treatment group was calculated via normalization to control groups and the IC50 value was calculated from the plot curve that fitted to a Boltzmann sigmoidal function.

TALDO1 = biological target: T1, TALDO1 (Homo sapiens, UniProt P37837); assay: Targeted metabolomics of PPP intermediates and intracellular NADPH; assay type: cell-based; details: after treatment of AGB
T1 construct: endogenous in cells
T1 sequence (P37837 1-337): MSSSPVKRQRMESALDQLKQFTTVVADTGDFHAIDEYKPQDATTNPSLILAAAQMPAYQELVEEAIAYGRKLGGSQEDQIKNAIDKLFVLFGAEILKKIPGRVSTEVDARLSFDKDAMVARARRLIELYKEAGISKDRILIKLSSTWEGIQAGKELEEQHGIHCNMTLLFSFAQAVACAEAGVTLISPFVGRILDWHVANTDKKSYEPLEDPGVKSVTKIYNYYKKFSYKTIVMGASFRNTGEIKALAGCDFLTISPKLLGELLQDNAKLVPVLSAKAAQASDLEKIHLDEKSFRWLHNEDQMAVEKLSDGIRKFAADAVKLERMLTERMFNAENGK
Protocol: TALDO1 is a key enzyme of the nonoxidative PPP providing ribose-5-phosphate for nucleic acid synthesis and NADPH (the reduced form of Nicotinamide adenine dinucleotide phosphate) for lipid biosynthesis. Targeted metabolomics analysis was performed for measuring of the intermediate metabolites involved in the PPP pathway. […] PPP activation has been widely found in different types of cancer because of the uncontrolled proliferation of cancer cells. […] Moreover, enhanced production of NADPH is crucial to increase the intracellular redox power of cancer cells to escape from oxidative stress.

HSP60 = HSP60 (Homo sapiens, UniProt P10809); assay: CETSA / ITDRFCETSA immunoblot; assay type: binding; parameters: dose dependent recovery of soluble HSP60 in cells subjected to heating; endogenous in cells; host or cells: NCI-H460; details: CETSA melt curve, NCI-H460 cells
Protocol: Immunoblot experiments were carried out for validating of the three identified potential targets. […] In the isothermal dose-response fingerprint (ITDRFCETSA) experiment, treatment of cells with increasing concentrations of AGB led to dose dependent recovery of soluble HSP60 in cells subjected to heating at protein denaturation temperature at 60° C.

Sequence of HSP60 (P10809 27-573): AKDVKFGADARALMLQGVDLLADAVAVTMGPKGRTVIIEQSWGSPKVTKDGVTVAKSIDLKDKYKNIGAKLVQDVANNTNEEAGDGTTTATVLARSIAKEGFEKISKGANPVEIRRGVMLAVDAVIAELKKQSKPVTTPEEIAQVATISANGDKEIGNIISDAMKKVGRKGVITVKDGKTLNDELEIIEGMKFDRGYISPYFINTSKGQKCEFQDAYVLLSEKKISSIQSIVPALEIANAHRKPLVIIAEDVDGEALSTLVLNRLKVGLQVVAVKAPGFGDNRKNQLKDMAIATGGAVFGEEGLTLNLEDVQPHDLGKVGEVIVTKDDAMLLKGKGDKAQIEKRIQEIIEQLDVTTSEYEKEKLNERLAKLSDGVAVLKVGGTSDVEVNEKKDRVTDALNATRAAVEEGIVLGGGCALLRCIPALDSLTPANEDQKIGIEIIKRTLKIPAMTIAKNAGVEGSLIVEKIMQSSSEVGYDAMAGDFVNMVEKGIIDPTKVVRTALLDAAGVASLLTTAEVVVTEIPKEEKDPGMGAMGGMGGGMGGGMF

CCCC(=O)c1c(O)c(Cc2c(O)c(Cc3c(O)c(C)c(OC)c(C(=O)CCC)c3O)c(O)c(C(=O)[C@@H](C)CC)c2O)c(O)c(C)c1OC [AGB, Agrimol B] was tested, and the inhibition at 1 µM (NCI-H460 spheres; NCI-H460, primary tumorspheres) was 40.6%, the inhibition at 0.5 µM (NCI-H460 spheres; NCI-H460, secondary tumorspheres, 0.5 μM AGB) was 54.7% and the inhibition at 1 µM (NCI-H460 spheres; NCI-H460, secondary tumorspheres) was 69.7%. For the same compound, the IC50 [1] was 4 µM, the PPP intermediate metabolites (TALDO1) was “significantly decreased” and the “intracellular content of NADPH” value (TALDO1) was “significant decrease”. For the same compound, the “increase in the protein melting temperature (Tm) vs DMSO control” value (HSP60) was 3.2 °C.
